# Results: ChEMBL document CHEMBL5725356, “Anti-fibrotic pyridinones” (2017)
# Experiment: ET-1 Assay: Fibroblasts (primary human lung and dermal, HFL-1, 3T3 etc) are seeded in 96-well plates at ~15000 cells/well and serum starved for 0-48 hours. After media exchange, compounds serially diluted in DMSO are added to the cells. After a brief incubation of ~30 min, stimulants (TGFb, serum, LPA etc) are added followed by further incubation for 16-48 hours. Media is then harvested and stored frozen in plate format for later endothelin-1 (ET-1) determination by ELISA. Toxicity measurements are made using the ATPlite kit (Perkin-Elmer). ET-1 is quantified using an ELISA kit (R&D Systems). The amount of ET-1 produced in the assay wells are back-calculated using the ELISA standard. The ability of a compound to inhibit ET-1 production is typically analyzed by fitting dose-response curves to a 4-parameter logistic function to obtain an EC50 value.
# Conditions: HFL1
row,SMILES,EC50
1,O=c1c2c(c(-c3cccc(F)c3)cn1-c1ccc(OC(F)(F)F)cc1)CCCC2,< 50 µM
2,O=C(c1ccccc1)n1cc(-c2ccc(=O)n(-c3ccccc3)c2)cn1,> 200 µM
3,CCn1ccc2c(-c3ccc(F)cc3)c[nH]c(=O)c21,< 50 µM
4,Cn1cc(-c2cn(-c3ccc(OC(F)(F)F)cc3)c(=O)c3[nH]ccc23)cn1,< 50 µM
5,Cc1cc(=O)n(-c2ccc3c(c2)OCO3)cc1-c1cnn(C)c1,> 200 µM
6,Cc1cc(=O)n(-c2ccc(OC(F)(F)F)cc2)cc1-c1ccc(-c2cncs2)cc1,in the range around 125 µM
7,Cc1cc(=O)n(-c2cccc(C(F)(F)F)c2)cc1-c1cnn(C)c1,> 200 µM
8,Cc1ccc(F)c(-c2ccccc2)c1,> 200 µM
9,O=c1c2scnc2c(-c2cn[nH]c2)cn1-c1ccc(OC(F)(F)F)cc1,< 50 µM
10,Cc1cc(=O)n(-c2ccc(OC(F)(F)F)cc2)cc1-c1ccc2c(c1)oc(=O)n2CCO,in the range around 125 µM
11,Cc1cc(=O)n(-c2ccc(OC(F)(F)F)cc2)cc1-c1cccc2c1NC(=O)CO2,> 200 µM
12,CCOc1ccc(-c2c(-c3ccc(F)cc3)c(=O)c2=O)c(C)c1,< 50 µM
13,Cn1cc(-c2cn(-c3ccc(Cl)cc3)c(=O)c3cccnc23)cn1,> 200 µM
14,Cn1cc(-c2cn(-c3ccc(OC(F)(F)F)cc3)c(=O)cc2C(=O)O)cn1,> 200 µM
15,O=c1cc(NCc2ccccn2)ccn1-c1ccc(OC(F)(F)F)cc1,< 50 µM
16,Cc1ccc(=S)n(-c2cccc(F)c2)c1,> 200 µM
17,CCn1cnc2c(=O)n(-c3ccc(OC(F)(F)F)cc3)cc(-c3cnn(C)c3)c21,> 200 µM
18,Cc1nc2c(=O)n(-c3ccc(OC(F)(F)F)cc3)cc(-c3ccc(F)cc3)c2o1,> 200 µM
19,O=c1c2c(c(-c3ccc(F)cc3)cn1-c1ccc(OC(F)(F)F)cc1)NCCC2,> 200 µM
20,CCOC(=O)Nc1cc(=O)n(-c2ccc(OC(F)(F)F)cc2)cc1-c1ccc(F)cc1,> 200 µM
21,CCOc1ccc(-n2cc(-c3cnn(C)c3)c(NCc3ccc(OCCOC)cc3)cc2=O)c(C)c1,< 50 µM
22,O=c1cc(NCc2ncccn2)ccn1-c1ccc(OC(F)(F)F)cc1,> 200 µM
23,CC(C)OCCn1ccc2c(-c3cn[nH]c3)cn(-c3ccc(OC(F)(F)F)cc3)c(=O)c21,< 50 µM
24,Cc1cc(=O)n(-c2ccc(OC(F)(F)F)cc2)cc1C,> 200 µM
25,O=c1ccc(C(F)(F)F)cn1-c1ccc(NCCN2CCN(CCO)CC2)cc1Cl,in the range around 125 µM

row,SMILES,EC50
1,O=c1cc(OCc2ccccc2)c(-c2ccc(F)cc2)cn1-c1ccc(OC(F)(F)F)cc1,> 200 µM
2,Cn1cc(-c2cn(-c3ccc(OC(F)(F)F)cc3)c(=O)c3[nH]ncc23)cn1,> 200 µM
3,CC(=O)c1ccc(=O)n(-c2cccc(C(F)(F)F)c2)c1,> 200 µM
4,O=c1c2nc[nH]c2c(-c2ccc(F)cc2)cn1-c1ccc(OC(F)(F)F)cc1,> 200 µM
5,O=C(Nc1cc(=O)n(-c2ccc(OC(F)(F)F)cc2)cc1-c1ccc(F)cc1)OCc1ccccc1,> 200 µM
6,Cc1cc(=O)n(-c2ccc(OC(F)(F)F)cc2)cc1-c1ccc2oc(=O)[nH]c2c1,< 50 µM
7,O=c1ccc(-c2cccc(Cl)c2)cn1-c1ccccc1Cl,< 50 µM
8,CCOc1ccc(-n2cc(-c3ccccc3)c(C)cc2=O)c(C)c1,in the range around 125 µM
9,COc1ccc(-n2cc(C)ccc2=S)cc1,> 200 µM
10,Cc1cc(=O)n(-c2ccc(OC(F)(F)F)cc2)cc1-c1cccc2scnc12,> 200 µM
11,COc1cccc(-n2cc(-c3cccc(Cl)c3)ccc2=O)c1,< 50 µM
12,Cc1nc2c(-c3cnn(Cc4ccccc4)c3)cn(-c3ccc(OC(F)(F)F)cc3)c(=O)c2s1,< 50 µM
13,Cc1cc(=O)n(-c2ccc(OC(F)(F)F)cc2)cc1-c1ccc2ncsc2c1,in the range around 125 µM
14,CCOc1ccc(-n2cc(-c3ccc(F)cc3)c(Cl)cc2=O)c(C)c1,> 200 µM
15,Cn1cc(-c2cn(-c3ccc(Cl)cc3)c(=O)c3nccnc23)cn1,> 200 µM
16,Cc1cc(=O)n(-c2ccc(NC(N)=O)cc2)cc1-c1ccc(F)cc1,in the range around 125 µM
17,Cc1n[nH]c(C)c1-c1ccc(=O)n(-c2ccc(F)cc2)c1,> 200 µM
18,O=c1c2[nH]ccc2ccn1-c1ccc(OC(F)(F)F)cc1,< 50 µM
19,Cn1cc(-c2cn(-c3ccc(Cl)cc3)c(=O)cc2Oc2ccccc2)cn1,< 50 µM
20,CCOc1ccc(-n2cc(-c3cnn(C)c3)c3nccnc3c2=O)c(C)c1,< 50 µM
21,Cn1ccc2c(-c3cn[nH]c3)cn(-c3ccc(OC(F)(F)F)cc3)c(=O)c21,< 50 µM
22,O=c1c(-c2ccc(F)cc2)c(-c2ccc(OC(F)(F)F)cc2)c1=O,< 50 µM
23,CC(=O)c1ccc(=O)n(-c2ccc(OC(C)C)cc2)c1,> 200 µM
24,CCOc1ccc(-n2cc(-c3ccc(F)cc3)c(C)cc2=O)c(C)c1,in the range around 125 µM
25,Cn1cc(-c2cn(-c3ccc(OC(F)(F)F)cc3)c(=O)cc2NCc2c(Cl)cccc2Cl)cn1,> 200 µM

row,SMILES,EC50
1,Cc1cc(=O)n(-c2ccc(C(F)(F)F)cc2)cc1-c1ccc(F)cc1,> 200 µM
2,Cc1cc(=O)n(-c2ccc(F)c(NC(N)=O)c2)cc1-c1ccc(F)cc1,< 50 µM
3,CCn1cc2c(-c3cnn(C)c3)cn(-c3ccc(OC(F)(F)F)cc3)c(=O)c2n1,< 50 µM
4,O=c1ccc(-c2cccc(Cl)c2)cn1-c1ccncc1,> 200 µM
5,CCOc1ccc(-n2cc(-c3cnn(C)c3)c(NCc3ccncc3)cc2=O)c(C)c1,in the range around 125 µM
6,COc1ccc(-c2ccc(=O)n(-c3ccc(Cl)cc3)c2)cc1,in the range around 125 µM
7,Cn1cc(-c2cn(-c3ccc(OC(F)(F)F)cc3)c(=O)cc2N)cn1,> 200 µM
8,O=c1ccc(-c2ccc(F)cc2)cn1Cc1ccccc1,< 50 µM
9,CCOc1ccc(CNc2cc(=O)n(-c3ccc(OC(F)(F)F)cc3)cc2-c2cnn(C)c2)cc1,< 50 µM
10,O=c1c2cccnc2c(-c2cn[nH]c2)cn1-c1ccc(OC(F)(F)F)cc1,> 200 µM
11,Cn1cc(-c2cn(-c3ccc(OC(F)(F)F)cc3)c(=O)c3cc[nH]c23)cn1,< 50 µM
12,CC(=O)Nc1cccc(-n2cc(Br)ccc2=O)c1,> 200 µM
13,Cn1cc(-c2cn(-c3ccc(OC(F)(F)F)cc3)c(=O)c3ccc(C(F)(F)F)nc23)cn1,< 50 µM
14,Cn1cc(-c2cc(=O)n(-c3ccc(OC(F)(F)F)cc3)cc2-c2cnn(C)c2)cn1,in the range around 125 µM
15,Cn1cc(-c2cn(-c3ccc(OC(F)(F)F)cc3)c(=O)cc2Oc2ccc(Cl)cc2)cn1,> 200 µM
16,CCc1cc(=O)n(-c2ccc(OC(F)(F)F)cc2)cc1-c1cnn(C)c1,in the range around 125 µM
17,O=c1ncc(-c2ccc(F)cc2)cn1-c1ccc(OC(F)(F)F)cc1,> 200 µM
18,Cn1cc(-c2c[nH]c(=O)c3[nH]nnc23)cn1,> 200 µM
19,Cc1ccc(-n2cc(-c3ccc(F)cc3)c(C)cc2=O)cc1,in the range around 125 µM
20,Cc1cc(=O)n(-c2ccc(Cl)cc2)cc1-c1cn[nH]c1,> 200 µM
21,Cn1cc(-c2cn(-c3ccc(OC(F)(F)F)cc3)c(=O)cc2NCc2ccc(F)cc2)cn1,< 50 µM
22,Cn1cc(-c2cn(-c3ccc(OC(F)(F)F)cc3)c(=O)cc2C#N)cn1,< 50 µM
23,O=c1c2[nH]nnc2c(-c2ccc(F)cc2)cn1-c1ccc(OC(F)(F)F)cc1,in the range around 125 µM
24,CCn1cnc2c(-c3cnn(C)c3)c[nH]c(=O)c21,in the range around 125 µM
25,Cc1cc(=O)n(-c2ccc(OC(F)(F)F)cc2)cc1-c1nnn(C)n1,> 200 µM

row,SMILES,EC50
1,O=c1ccc(-c2ccccc2)cn1-c1ccncc1,> 200 µM
2,O=c1c2[nH]ncc2c(-c2ccc(F)cc2)cn1-c1ccc(OC(F)(F)F)cc1,< 50 µM
3,Cc1cc(=O)n(-c2ccc(F)cc2)cc1-c1ccc(OC(F)(F)F)cc1,in the range around 125 µM
4,CC(=O)c1ccc(=O)n(-c2cccc(F)c2)c1,> 200 µM
5,CCOc1ccc(-n2cc(-c3cnn(C)c3)c(NCc3ccccn3)cc2=O)c(C)c1,in the range around 125 µM
6,CCn1ccc2c(-c3cnn(C)c3)cn(-c3ccc(OC(F)(F)F)cc3)c(=O)c21,< 50 µM
7,Cc1cc(=O)n(-c2ccc(OC(F)(F)F)cc2)cc1-c1cccc(F)c1,< 50 µM
8,Cc1cc(=O)n(-c2cccc3c2OCCO3)cc1-c1ccc(F)cc1,in the range around 125 µM
9,CC(=O)Nc1cc(=O)n(-c2ccc(OC(F)(F)F)cc2)cc1-c1cnn(C)c1,> 200 µM
10,CC(=O)Nc1cccc(-n2cc(C(C)=O)ccc2=O)c1,> 200 µM
11,Cc1cc(=O)n(-c2ccc(OC(F)(F)F)cc2C)cc1-c1cnn(C)c1,> 200 µM
12,Cc1cc(=O)n(-c2ccc(OC(F)(F)F)cc2)cc1-c1ccc(Cl)c(F)c1,in the range around 125 µM
13,Cn1cc(-c2cn(-c3ccc(OC(F)(F)F)cc3)c(=O)cc2NCc2ccc(C#N)cc2)cn1,> 200 µM
14,O=c1ccc(C(F)(F)F)cn1-c1ccccc1Cl,> 200 µM
15,CCOc1ccc(-n2cc(-c3cnn(C)c3)c(Oc3ccccc3)cc2=O)c(C)c1,< 50 µM
16,Cc1n[nH]c(C)c1-c1ccc(=O)n(-c2ccc(Cl)cc2)c1,> 200 µM
17,CCn1nnc2c(=O)n(-c3ccc(OC(F)(F)F)cc3)cc(-c3ccc(F)cc3)c21,< 50 µM
18,CCOc1ccc(-n2cc(-c3ccc4scnc4c3)c(C)cc2=O)c(C)c1,> 200 µM
19,Cc1cc(=O)n(-c2cccc(N)c2)cc1-c1ccc(F)cc1,in the range around 125 µM
20,Cc1n[nH]c(C)c1-c1ccc(=O)n(-c2ccc(OC(C)C)cc2)c1,in the range around 125 µM
21,Cn1cc(-c2cn(-c3ccc(OC(F)(F)F)cc3)c(=O)c3c2CCN3C(=O)OC(C)(C)C)cn1,< 50 µM
22,O=c1ccc2c(n1-c1ccc(OC(F)(F)F)cc1)CCC2,in the range around 125 µM
23,Cc1cc(=O)n(-c2ccc(OC(F)(F)F)cc2)cc1-c1ccc2ccn(C)c2c1,< 50 µM
24,Cn1cc(-c2cn(-c3ccc(OC(F)(F)F)cc3)c(=O)c3ncn(Cc4ccccc4)c23)cn1,> 200 µM
25,O=c1ccc(-c2cccc(Cl)c2)cn1-c1ccccc1F,in the range around 125 µM
